Assay results published in patent publication US20260091026A1, “METHODS OF TREATING INFLAMMATORY DISEASES” (INTERLINE THERAPEUTICS, INC., priority 2023, published 2026).

Key:
[1] = tested on: THP1-Dual cells, NF-κB pathway (SEAP); assay: THP-1 Dual cell SEAP assay (L18-MDP stimulated); format: cell-based; conditions: Homo sapiens, 10 ng/mL L18-MDP, 20-24 h, SEAP readout, read-out: IFNγ THP1 IC50
How it was run: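 About 25,000 THP1-Dual cells per well were preincubated 30 min with serially diluted compound, then stimulated overnight (20-24 h, 37 °C) with 10 ng/mL L18-MDP (final). NF-κB-driven SEAP in supernatant was read with QUANTI-Blue at OD 620-655 nm after 2 h; % inhibition versus DMSO/L18-MDP wells was fitted by non-linear regression to give IC50.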

[2] = biological target: T1, GST-RIPK2 fusion protein (human RIPK2 amino acids 1-310) (Homo sapiens, UniProt O43353); assay: RIPK2 binding competition assay (TR-FRET, Tracer 199); conditions: displacement of Tracer 199 (10 nM), 45 min at 22° C.
T1 construct: made in house; host or cells: baculovirus-infected Sf9 cells
How it was run: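 GST-tagged human RIPK2 (aa 1-310, Sf9-expressed; 1 nM final) competed against Alexa647 Tracer 199 (10 nM) with Tb anti-GST antibody (0.5 nM) in Tris pH 7.5/MgCl2/DTT buffer, 45 min at 22 °C. Read-out was the 665/620 nm emission ratio, normalized to no-inhibitor (0%) and no-enzyme (−100%) controls.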

[3] = biological target: T2, RIPK2 (KD)/XIAP (BIR2) (Homo sapiens, UniProt O43353); assay: RIPK2-XIAP binding competition PPI assay (TR-FRET); conditions: for Emax: 50 nM of GSK583 = -100% activity, read-out: PPI Amax; for IC50: GST-RIPK2 / His-XIAP (BIR2)-avi, 120 min at 23° C.
T2 construct: made in house; host or cells: baculovirus-infected Sf9 cells
How it was run: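 TR-FRET competition between GST-RIPK2 (aa 1-310, 1 nM) and His-XIAP BIR2-avi (aa 152-231, 25 nM), both Sf9-expressed, detected with anti-His-XL665 and anti-GST-Tb in Tris pH 7.5 buffer with MgCl2, DTT and vanadate. Incubation was 120 min at 23 °C; the 665/520 nm ratio was normalized to no inhibitor (0%) and 50 nM GSK583 (−100%).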

T2 sequence (O43353 1-310): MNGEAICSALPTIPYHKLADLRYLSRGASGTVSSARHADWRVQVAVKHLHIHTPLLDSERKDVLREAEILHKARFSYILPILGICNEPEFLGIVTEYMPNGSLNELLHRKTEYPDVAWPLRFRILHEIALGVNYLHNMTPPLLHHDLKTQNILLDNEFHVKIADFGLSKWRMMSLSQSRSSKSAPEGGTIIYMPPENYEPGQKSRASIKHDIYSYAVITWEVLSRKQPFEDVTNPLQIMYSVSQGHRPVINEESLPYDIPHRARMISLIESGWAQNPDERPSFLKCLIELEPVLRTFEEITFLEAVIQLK
T1 sequence (O43353 1-310): as above

Row | Compound | IC50 [1] | IC50 [2] | Emax [3] | IC50 [3]
1 | COc1cc2ncc(-n3cc(NC(=O)[C@@H]4C[C@H]4c4ccccc4)cn3)n2cc1S(=O)(=O)C(C)(C)C [Example 168, (1R,2R)-N-(1-(6-(tert-butylsulfonyl)-7-methoxyimidazo[1,2-a]pyridin-3-yl)-1H-pyrazol-4-yl)-2-phenylcyclopropane-1-carboxamide] | > 2500 nM | > 1000 nM | ≥ 80% | > 1000 nM
2 | COc1cc2ncc(-n3cc(NC(=O)C4(F)CCCCC4)cn3)n2cc1S(=O)(=O)C(C)(C)C [Example 169, N-(1-(6-(tert-butylsulfonyl)-7-methoxyimidazo[1,2-a]pyridin-3-yl)-1H-pyrazol-4-yl)-1-fluorocyclohexane-1-carboxamide] | > 2500 nM | 200 to 500 nM | ≥ 80% | > 1000 nM
3 | COc1cc2ncc(-n3cc(NC(=O)c4ccccc4)cn3)n2cc1S(=O)(=O)C(C)(C)C [Example 170, N-(1-(6-(tert-butylsulfonyl)-7-methoxyimidazo[1,2-a]pyridin-3-yl)-1H-pyrazol-4-yl)benzamide] | > 2500 nM | > 1000 nM | 55 to 80% | > 1000 nM
4 | COc1cc2ncc(-n3cc(NC(=O)[C@H]4C[C@H]4c4ccccc4)cn3)n2cc1S(=O)(=O)C(C)(C)C [Example 171, (1S,2R)-N-(1-(6-(tert-butylsulfonyl)-7-methoxyimidazo[1,2-a]pyridin-3-yl)-1H-pyrazol-4-yl)-2-phenylcyclopropane-1-carboxamide] | 500 to 2500 nM | < 200 nM | ≥ 80% | 100 to 1000 nM
5 | COc1cc2ncc(-n3cc(NC(=O)[C@H]4CC[C@@H](O)CC4)cn3)n2cc1S(=O)(=O)C(C)(C)C [Example 172, (1s,4s)-N-(1-(6-(tert-butylsulfonyl)-7-methoxyimidazo[1,2-a]pyridin-3-yl)-1H-pyrazol-4-yl)-4-hydroxycyclohexane-1-carboxamide] | > 2500 nM | > 1000 nM | 30 to 55% | > 1000 nM
6 | COc1cc2ncc(-n3cc(N(C)C(=O)Cc4ccccc4Cl)cn3)n2cc1S(=O)(=O)C(C)(C)C [Example 173, N-(1-(6-(tert-butylsulfonyl)-7-methoxyimidazo[1,2-a]pyridin-3-yl)-1H-pyrazol-4-yl)-2-(2-chlorophenyl)-N-methylacetamide] | > 2500 nM | > 1000 nM | ≥ 80% | > 1000 nM
7 | COc1cc2ncc(-n3cc(NC(=O)C4(F)CCC5(CC5)CC4)cn3)n2cc1S(=O)(=O)C(C)(C)C [Example 174, N-(1-(6-(tert-butylsulfonyl)-7-methoxyimidazo[1,2-a]pyridin-3-yl)-1H-pyrazol-4-yl)-6-fluorospiro[2.5]octane-6-carboxamide] | > 2500 nM | 500 to 1000 nM | ≥ 80% | > 1000 nM
8 | COc1cc2ncc(-n3cc(NC(=O)C4(C)CCCCC4)cn3)n2cc1S(=O)(=O)C(C)(C)C [Example 175, N-(1-(6-(tert-butylsulfonyl)-7-methoxyimidazo[1,2-a]pyridin-3-yl)-1H-pyrazol-4-yl)-1-methylcyclohexane-1-carboxamide] | > 2500 nM | > 1000 nM | 55 to 80% | > 1000 nM
9 | COc1cc2ncc(-c3cc(NC(=O)C4(F)CCCCC4)n(C)n3)n2cc1S(=O)(=O)C(C)(C)C [Example 176, N-(3-(6-(tert-butylsulfonyl)-7-methoxyimidazo[1,2-a]pyridin-3-yl)-1-methyl-1H-pyrazol-5-yl)-1-fluorocyclohexane-1-carboxamide] | 500 to 2500 nM | < 200 nM | ≥ 80% | 100 to 1000 nM
10 | COc1cc2ncc(-n3cc(N4CCC5(CCCCC5)C4=O)cn3)n2cc1S(=O)(=O)C(C)(C)C [Example 181, 2-(1-(6-(tert-butylsulfonyl)-7-methoxyimidazo[1,2-a]pyridin-3-yl)-1H-pyrazol-4-yl)-2-azaspiro[4.5]decan-1-one] | > 2500 nM | > 1000 nM | 30 to 55% | > 1000 nM
11 | CN1CCC(Nc2cncc(-c3cc(NC(=O)Cc4ccccc4Cl)n(C)n3)c2)CC1 [Example 184, 2-(2-chlorophenyl)-N-(1-methyl-3-(5-((1-methylpiperidin-4-yl)amino)pyridin-3-yl)-1H-pyrazol-5-yl) acetamide] | > 2500 nM | < 200 nM | ≥ 80% | 100 to 1000 nM
12 | COc1cc2ncc(-c3cc(NC(=O)Cc4ccccc4Cl)n(C)n3)n2cc1S(=O)(=O)C(C)(C)C [Example 185, N-(3-(6-(tert-butylsulfonyl)-7-methoxyimidazo[1,2-a]pyridin-3-yl)-1-methyl-1H-pyrazol-5-yl)-2-(2-chlorophenyl)acetamide] | 500 to 2500 nM | < 200 nM | ≥ 80% | 10 to 100 nM
13 | COc1cc2ncc(-c3cc(NC(=O)Cc4ccccc4Cl)n(C)n3)n2cc1C1(F)CCN(C)CC1 [Example 186, 2-(2-chlorophenyl)-N-(3-(6-(4-fluoro-1-methylpiperidin-4-yl)-7-methoxyimidazo[1,2-a]pyridin-3-yl)-1-methyl-1H-pyrazol-5-yl)acetamide] | 500 to 2500 nM | < 200 nM | ≥ 80% | 10 to 100 nM
14 | COc1cc2ncc(-c3cc(NC(=O)C4(F)CCCCC4)n(CCO)n3)n2cc1S(=O)(=O)C(C)(C)C [Example 193, N-(3-(6-(tert-butylsulfonyl)-7-methoxyimidazo[1,2-a]pyridin-3-yl)-1-(2-hydroxyethyl)-1H-pyrazol-5-yl)-1-fluorocyclohexane-1-carboxamide] | > 2500 nM | < 200 nM | ≥ 80% | 100 to 1000 nM
15 | COc1ccn2ncc(-c3cc(NC(=O)C4(F)CCCCC4)n(CCO)n3)c2n1 [compound 194] | > 2500 nM | > 1000 nM | ≤ 30% | > 1000 nM
